Experimental data as given in PubChem BioAssay AID330 (DTP/NCI, 2004).
Where “and” joins values, the source holds several entries; their conditions need not be identical. Equal values may be shown once. Toxic doses and inconclusive results are not listed. Rule for the calls: active = survival T/C of 150% or more; inactive = T/C below 125% in these data.

Tested on: P388 leukemia ip, CD2F1 mice, survival T/C
Experiment: NCI In Vivo Anticancer Drug Screen. Data for tumor model P388 Leukemia (intraperitoneal) in CD2F1 (CDF1) mice
Details: endpoint: median survival time, higher = longer survival
Outline: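 Mice carrying the transplanted tumor received test compound or vehicle. Survival was recorded in each group, and the value is the treated-group measurement divided by that of the vehicle-treated control group.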

[1] = dose: 50.0 mg/kg/injection, schedule: Q01DX005 (ip), vehicle: saline with Tween-80
[2] = dose: 100.0 mg/kg/injection, schedule: Q01DX005 (ip), vehicle: saline with Tween-80
[3] = dose: 200.0 mg/kg/injection, schedule: Q01DX005 (ip), vehicle: saline with Tween-80
[4] = dose: 100.0 mg/kg/injection, schedule: Q01DX009 (ip), vehicle: saline with Tween-80
[5] = dose: 200.0 mg/kg/injection, schedule: Q01DX009 (ip), vehicle: saline with Tween-80
[6] = dose: 50.0 mg/kg/injection, schedule: Q01DX009 (ip), vehicle: Klucel (hydroxypropylcellulose) (HPC)

Measured: T/C

COc1cc(C[C@H]2c3cc(OC)c(OC)cc3CCN2C)c(Oc2cc3c(cc2OC)-c2c(OC)c(OC)cc4c2[C@H](C3)N(C)CC4)cc1OC
inactive: dose: 2.5 mg/kg/injection, schedule: Q03HX016 (ip), vehicle: saline 90 % of control | dose: 2.5 mg/kg/injection, schedule: Q03HX024 (ip), vehicle: saline 95 % of control | dose: 5.0 mg/kg/injection, schedule: Q03HX008 (ip), vehicle: saline 91 % of control | dose: 5.0 mg/kg/injection, schedule: Q03HX016 (ip), vehicle: saline 100 % of control | dose: 5.0 mg/kg/injection, schedule: Q03HX024 (ip), vehicle: saline 95 % of control | dose: 6.25 mg/kg/injection, schedule: Q01DX009 (ip), vehicle: saline 90 % of control | dose: 10.0 mg/kg/injection, schedule: Q01DX009 (ip), vehicle: distilled water + Tween-80 96 % of control | dose: 10.0 mg/kg/injection, schedule: Q03HX008 (ip), vehicle: saline 95 % of control | dose: 10.0 mg/kg/injection, schedule: Q03HX016 (ip), vehicle: saline 100 % of control | dose: 10.0 mg/kg/injection, schedule: Q03HX024 (ip), vehicle: saline 95 % of control | dose: 12.5 mg/kg/injection, schedule: Q01DX009 (ip), vehicle: saline 104 % of control | dose: 12.5 mg/kg/injection, schedule: Q01DX009 (oral), vehicle: saline 100 % of control | dose: 20.0 mg/kg/injection, schedule: Q01DX009 (ip), vehicle: distilled water + Tween-80 92 % of control | dose: 20.0 mg/kg/injection, schedule: Q03HX008 (ip), vehicle: saline 100 % of control | dose: 20.0 mg/kg/injection, schedule: Q03HX016 (ip), vehicle: saline 100 % of control | dose: 20.0 mg/kg/injection, schedule: Q03HX024 (ip), vehicle: saline 100 % of control | dose: 25.0 mg/kg/injection, schedule: Q01DX009 (ip), vehicle: saline 109 % of control | dose: 25.0 mg/kg/injection, schedule: Q01DX009 (oral), vehicle: saline 100 % of control | dose: 25.0 mg/kg/injection, schedule: Q04DX003 (ip), vehicle: saline 100 % of control | dose: 25.0 mg/kg/injection, schedule: Q08DX002 (ip), vehicle: saline 100 % of control | dose: 40.0 mg/kg/injection, schedule: Q01DX009 (ip), vehicle: distilled water + Tween-80 92 % of control | dose: 40.0 mg/kg/injection, schedule: Q03HX008 (ip), vehicle: saline 100 % of control | dose: 40.0 mg/kg/injection, schedule: Q03HX016 (ip), vehicle: saline 109 % of control | dose: 40.0 mg/kg/injection, schedule: Q03HX024 (ip), vehicle: saline 95 % of control | dose: 50.0 mg/kg/injection, schedule: Q01DX001 (ip), vehicle: saline 91 % of control | dose: 50.0 mg/kg/injection, schedule: Q01DX009 (ip), vehicle: saline 104 % of control | dose: 50.0 mg/kg/injection, schedule: Q01DX009 (oral), vehicle: saline 100 % of control | dose: 50.0 mg/kg/injection, schedule: Q04DX003 (ip), vehicle: saline 100 % of control | dose: 50.0 mg/kg/injection, schedule: Q08DX002 (ip), vehicle: saline 100 % of control | dose: 80.0 mg/kg/injection, schedule: Q01DX009 (ip), vehicle: distilled water + Tween-80 101 % of control | dose: 80.0 mg/kg/injection, schedule: Q03HX008 (ip), vehicle: saline 100 % of control | dose: 100.0 mg/kg/injection, schedule: Q01DX001 (ip), vehicle: saline 91 % of control | dose: 100.0 mg/kg/injection, schedule: Q01DX001 (oral), vehicle: saline 104 % of control | dose: 100.0 mg/kg/injection, schedule: Q01DX009 (ip), vehicle: saline 100 % of control | dose: 100.0 mg/kg/injection, schedule: Q01DX009 (oral), vehicle: saline 100 % of control | dose: 100.0 mg/kg/injection, schedule: Q04DX003 (ip), vehicle: saline 109 % of control | dose: 100.0 mg/kg/injection, schedule: Q08DX002 (ip), vehicle: saline 100 % of control | dose: 200.0 mg/kg/injection, schedule: Q01DX001 (ip), vehicle: saline 91 % of control | dose: 200.0 mg/kg/injection, schedule: Q01DX001 (oral), vehicle: saline 95 % of control | dose: 200.0 mg/kg/injection, schedule: Q01DX009 (oral), vehicle: saline 95 % of control | dose: 200.0 mg/kg/injection, schedule: Q04DX003 (ip), vehicle: saline 109 % of control | dose: 200.0 mg/kg/injection, schedule: Q08DX002 (ip), vehicle: saline 100 % of control | dose: 400.0 mg/kg/injection, schedule: Q01DX001 (ip), vehicle: saline 91 % of control | dose: 400.0 mg/kg/injection, schedule: Q01DX001 (oral), vehicle: saline 95 % of control | dose: 400.0 mg/kg/injection, schedule: Q08DX002 (ip), vehicle: saline 100 % of control | dose: 800.0 mg/kg/injection, schedule: Q01DX001 (ip), vehicle: saline 100 % of control | dose: 800.0 mg/kg/injection, schedule: Q01DX001 (oral), vehicle: saline 95 % of control | dose: 1600.0 mg/kg/injection, schedule: Q01DX001 (oral), vehicle: saline 104 % of control

Nc1n[n+](-c2ccc(Cl)cc2)no1
active: dose: 25.0 mg/kg/injection, schedule: Q01DX009 (ip), vehicle: water 155 % of control
inactive: dose: 3.13 mg/kg/injection, schedule: Q01DX009 (ip), vehicle: water 108 % of control | dose: 6.25 mg/kg/injection, schedule: Q01DX009 (ip), vehicle: water 102 % of control and 124 % of control | dose: 12.5 mg/kg/injection, schedule: Q01DX009 (ip), vehicle: water 124 % of control

CC1=NOC(=O)/C1=C/c1ccc2c(c1)OCO2
inactive: [1] 106 % of control | [2] 105 % of control | [3] 113 % of control

COc1ccc(Br)cc1/C=N\NS(=O)(=O)c1ccc(C)cc1
inactive: [4] 104 % of control | dose: 100.0 mg/kg/injection, schedule: Q04DX003 (ip), vehicle: saline with Tween-80 116 % of control | [5] 109 % of control | dose: 200.0 mg/kg/injection, schedule: Q04DX003 (ip), vehicle: saline with Tween-80 100 % of control | dose: 400.0 mg/kg/injection, schedule: Q01DX009 (ip), vehicle: saline with Tween-80 122 % of control | dose: 400.0 mg/kg/injection, schedule: Q04DX003 (ip), vehicle: saline with Tween-80 108 % of control

COc1cc([N+](=O)[O-])c(OC)cc1C(C)=O
inactive: dose: 50.0 mg/kg/injection, schedule: Q01DX005 (ip), vehicle: Klucel (hydroxypropylcellulose) (HPC) 96 % of control | dose: 100.0 mg/kg/injection, schedule: Q01DX005 (ip), vehicle: Klucel (hydroxypropylcellulose) (HPC) 93 % of control | dose: 200.0 mg/kg/injection, schedule: Q01DX005 (ip), vehicle: Klucel (hydroxypropylcellulose) (HPC) 100 % of control

Cc1nnc(C)s1
inactive: [6] 102 % of control and 106 % of control and 98 % of control | dose: 100.0 mg/kg/injection, schedule: Q01DX009 (ip), vehicle: Klucel (hydroxypropylcellulose) (HPC) 114 % of control and 96 % of control and 97 % of control | dose: 200.0 mg/kg/injection, schedule: Q01DX009 (ip), vehicle: Klucel (hydroxypropylcellulose) (HPC) 101 % of control and 106 % of control | dose: 600.0 mg/kg/injection, schedule: Q01DX009 (ip), vehicle: Klucel (hydroxypropylcellulose) (HPC) 106 % of control

CCCCN(CCCC)c1nsc(N2CCOCC2)n1
inactive: dose: 50.0 mg/kg/injection, schedule: Q01DX009 (ip), vehicle: saline with Tween-80 94 % of control | [4] 100 % of control | [5] 108 % of control

C=C1CC2(OC1=O)C(C1COC(C)(C)O1)OC1OC(C)(C)OC12 (stereo unspecified)
inactive: dose: 25.0 mg/kg/injection, schedule: Q04DX002 (ip), vehicle: saline 96 % of control | [1] 105 % of control | dose: 50.0 mg/kg/injection, schedule: Q04DX002 (ip), vehicle: saline 99 % of control | [2] 110 % of control | dose: 100.0 mg/kg/injection, schedule: Q04DX002 (ip), vehicle: saline 104 % of control | [3] 105 % of control

Cc1c(CCl)cc([N+](=O)[O-])cc1CCl
inactive: dose: 6.25 mg/kg/injection, schedule: Q01DX009 (ip), vehicle: Klucel (hydroxypropylcellulose) (HPC) 99 % of control | dose: 12.5 mg/kg/injection, schedule: Q01DX009 (ip), vehicle: Klucel (hydroxypropylcellulose) (HPC) 112 % of control and 114 % of control (2×) | dose: 25.0 mg/kg/injection, schedule: Q01DX009 (ip), vehicle: Klucel (hydroxypropylcellulose) (HPC) 116 % of control and 117 % of control and 120 % of control | [6] 114 % of control and 117 % of control
